Results: ChEMBL document CHEMBL3414499, “Characterization of two distinct structural classes of selective aldehyde dehydrogenase 1A1 inhibitors” (J Med Chem, 2015)
Active and inactive are the calls of the source. No cut-off for these calls is given here.

Tests used:
[1] = target: T1, Aldehyde dehydrogenase X, mitochondrial (Homo sapiens) (UniProt P30837); test: Inhibition of recombinant human ALDH1B1 using propionaldehyde as substrate at 100 uM preincubated for 2 mins with NAD+ followed by substrate addition by UV-Vis spectrophotometric analysis
T1 sequence (whole entry): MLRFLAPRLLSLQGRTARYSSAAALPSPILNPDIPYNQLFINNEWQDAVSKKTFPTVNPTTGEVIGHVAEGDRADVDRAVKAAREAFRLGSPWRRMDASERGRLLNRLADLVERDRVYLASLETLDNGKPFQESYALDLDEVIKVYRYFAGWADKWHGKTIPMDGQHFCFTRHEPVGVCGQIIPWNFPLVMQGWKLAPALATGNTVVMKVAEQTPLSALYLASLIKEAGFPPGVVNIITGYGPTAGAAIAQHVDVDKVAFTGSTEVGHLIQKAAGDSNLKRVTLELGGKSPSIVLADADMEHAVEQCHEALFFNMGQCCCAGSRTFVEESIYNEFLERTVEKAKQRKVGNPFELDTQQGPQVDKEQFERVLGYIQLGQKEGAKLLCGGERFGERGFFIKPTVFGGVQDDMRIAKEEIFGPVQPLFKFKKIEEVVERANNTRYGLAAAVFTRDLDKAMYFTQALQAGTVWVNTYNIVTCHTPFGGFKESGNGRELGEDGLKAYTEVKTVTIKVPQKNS

[2] = target: T2, Retinaldehyde dehydrogenase 3 (Homo sapiens) (UniProt P47895); test: Inhibition of recombinant human ALDH1A3 using propionaldehyde as substrate at 100 uM preincubated for 2 mins with NAD+ followed by substrate addition by UV-Vis spectrophotometric analysis
T2 sequence (whole entry): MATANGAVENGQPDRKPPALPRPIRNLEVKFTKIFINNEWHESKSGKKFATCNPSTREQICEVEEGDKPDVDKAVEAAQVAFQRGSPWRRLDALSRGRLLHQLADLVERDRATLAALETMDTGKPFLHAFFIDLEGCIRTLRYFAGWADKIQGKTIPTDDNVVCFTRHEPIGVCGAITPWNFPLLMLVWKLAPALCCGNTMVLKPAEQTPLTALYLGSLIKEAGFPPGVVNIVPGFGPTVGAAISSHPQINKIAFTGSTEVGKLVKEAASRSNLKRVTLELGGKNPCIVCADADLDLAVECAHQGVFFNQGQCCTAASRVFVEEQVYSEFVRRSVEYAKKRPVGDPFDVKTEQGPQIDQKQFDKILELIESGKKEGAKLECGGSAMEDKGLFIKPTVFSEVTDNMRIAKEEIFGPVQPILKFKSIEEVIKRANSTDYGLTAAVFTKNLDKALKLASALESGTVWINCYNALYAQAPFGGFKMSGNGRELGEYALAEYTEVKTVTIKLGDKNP

[3] = target: T3, Retinal dehydrogenase 2 (Homo sapiens) (UniProt O94788); test: Inhibition of recombinant human ALDH1A2 using propionaldehyde as substrate at 100 uM preincubated for 2 mins with NAD+ followed by substrate addition by UV-Vis spectrophotometric analysis
T3 sequence (whole entry): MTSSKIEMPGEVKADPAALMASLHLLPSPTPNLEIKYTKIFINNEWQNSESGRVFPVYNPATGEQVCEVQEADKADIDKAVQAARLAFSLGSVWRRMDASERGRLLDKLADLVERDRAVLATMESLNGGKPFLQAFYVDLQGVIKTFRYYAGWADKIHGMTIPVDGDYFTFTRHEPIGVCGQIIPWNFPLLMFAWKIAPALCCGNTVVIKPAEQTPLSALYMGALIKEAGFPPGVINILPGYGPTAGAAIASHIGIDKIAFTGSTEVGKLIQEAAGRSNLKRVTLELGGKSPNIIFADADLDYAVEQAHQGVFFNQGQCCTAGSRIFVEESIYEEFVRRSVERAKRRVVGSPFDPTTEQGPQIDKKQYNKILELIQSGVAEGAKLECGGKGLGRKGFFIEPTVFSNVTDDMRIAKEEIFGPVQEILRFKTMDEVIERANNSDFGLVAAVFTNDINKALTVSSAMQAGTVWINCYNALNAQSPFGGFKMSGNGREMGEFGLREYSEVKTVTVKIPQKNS

[4] = target: T4, Aldehyde dehydrogenase 1A1 (Homo sapiens) (UniProt P00352); test: Effect on recombinant human ALDH1A1 using propionaldehyde as substrate up to 250 uM preincubated for 2 mins with NAD+ followed by substrate addition by UV-Vis spectrophotometric analysis
T4 sequence (whole entry): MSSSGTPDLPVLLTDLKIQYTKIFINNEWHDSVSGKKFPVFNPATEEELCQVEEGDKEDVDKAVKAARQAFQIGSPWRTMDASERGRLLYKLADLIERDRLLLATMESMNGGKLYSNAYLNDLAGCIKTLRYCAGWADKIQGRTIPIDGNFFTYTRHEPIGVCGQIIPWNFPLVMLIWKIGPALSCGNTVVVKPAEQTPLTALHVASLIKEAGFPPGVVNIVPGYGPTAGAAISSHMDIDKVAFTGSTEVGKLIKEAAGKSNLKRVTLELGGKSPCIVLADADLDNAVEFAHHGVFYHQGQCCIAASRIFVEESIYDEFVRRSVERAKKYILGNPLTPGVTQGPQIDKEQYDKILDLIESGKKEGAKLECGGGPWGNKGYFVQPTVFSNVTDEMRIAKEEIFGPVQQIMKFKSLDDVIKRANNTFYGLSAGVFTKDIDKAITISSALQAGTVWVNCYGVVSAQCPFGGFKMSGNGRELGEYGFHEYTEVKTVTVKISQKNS

[5] = target: T5, Aldehyde dehydrogenase, dimeric NADP-preferring (Homo sapiens) (UniProt P30838); test: Inhibition of recombinant human ALDH3A1 using benzaldehyde as substrate at 100 uM preincubated for 2 mins with NAD+ followed by substrate addition by UV-Vis spectrophotometric analysis
T5 sequence (whole entry): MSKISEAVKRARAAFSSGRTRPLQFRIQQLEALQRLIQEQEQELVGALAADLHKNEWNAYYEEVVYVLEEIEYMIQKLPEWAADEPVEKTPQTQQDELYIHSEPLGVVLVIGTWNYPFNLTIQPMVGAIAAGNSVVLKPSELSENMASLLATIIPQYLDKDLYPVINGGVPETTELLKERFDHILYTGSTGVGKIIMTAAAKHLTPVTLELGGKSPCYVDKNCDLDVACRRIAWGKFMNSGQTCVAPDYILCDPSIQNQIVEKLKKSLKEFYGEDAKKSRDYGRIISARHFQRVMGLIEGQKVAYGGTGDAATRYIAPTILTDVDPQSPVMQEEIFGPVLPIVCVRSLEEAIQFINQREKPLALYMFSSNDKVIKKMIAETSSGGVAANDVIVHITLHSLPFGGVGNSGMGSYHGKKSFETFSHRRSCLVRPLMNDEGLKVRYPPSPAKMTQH

[6] = target: T6, Aldehyde dehydrogenase, mitochondrial (Homo sapiens) (UniProt P05091); test: Inhibition of recombinant human ALDH2 using propionaldehyde as substrate at 100 uM preincubated for 2 mins with NAD+ followed by substrate addition by UV-Vis spectrophotometric analysis
T6 sequence (whole entry): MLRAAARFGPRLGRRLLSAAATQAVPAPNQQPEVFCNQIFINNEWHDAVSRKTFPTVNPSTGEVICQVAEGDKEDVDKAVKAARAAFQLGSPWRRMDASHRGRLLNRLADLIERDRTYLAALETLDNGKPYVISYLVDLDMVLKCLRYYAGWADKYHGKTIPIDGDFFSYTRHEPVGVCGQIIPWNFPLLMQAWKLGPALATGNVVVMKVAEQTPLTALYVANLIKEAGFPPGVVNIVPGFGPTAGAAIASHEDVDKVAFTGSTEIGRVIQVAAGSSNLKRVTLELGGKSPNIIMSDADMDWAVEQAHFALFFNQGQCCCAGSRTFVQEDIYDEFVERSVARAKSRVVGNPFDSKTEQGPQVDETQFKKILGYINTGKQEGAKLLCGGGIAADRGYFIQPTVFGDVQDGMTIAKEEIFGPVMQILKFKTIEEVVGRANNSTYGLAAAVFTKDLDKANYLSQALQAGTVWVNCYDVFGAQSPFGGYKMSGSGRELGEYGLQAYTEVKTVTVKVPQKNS

[7] = target: T4, Aldehyde dehydrogenase 1A1 (Homo sapiens); test: Inhibition of recombinant human ALDH1A1 using propionaldehyde as substrate at 100 uM preincubated for 2 mins with NAD+ followed by substrate addition by UV-Vis spectrophotometric analysis relative to control
[8] = target: T2, Retinaldehyde dehydrogenase 3 (Homo sapiens); test: Activation of recombinant human ALDH1A3 using propionaldehyde as substrate at 20 uM preincubated for 2 mins with NAD+ followed by substrate addition by UV-Vis spectrophotometric analysis
[9] = target: T5, Aldehyde dehydrogenase, dimeric NADP-preferring (Homo sapiens); test: Activation of recombinant human ALDH3A1 using benzaldehyde as substrate at 20 uM preincubated for 2 mins with NAD+ followed by substrate addition by UV-Vis spectrophotometric analysis
[10] = target: T2, Retinaldehyde dehydrogenase 3 (Homo sapiens); test: Activation of recombinant human ALDH1A3 using propionaldehyde as substrate at 100 uM preincubated for 2 mins with NAD+ followed by substrate addition by UV-Vis spectrophotometric analysis
[11] = target: T5, Aldehyde dehydrogenase, dimeric NADP-preferring (Homo sapiens); test: Activation of recombinant human ALDH3A1 using benzaldehyde as substrate at 100 uM preincubated for 2 mins with NAD+ followed by substrate addition by UV-Vis spectrophotometric analysis
[12] = target: T3, Retinal dehydrogenase 2 (Homo sapiens); test: Activation of recombinant human ALDH1A2 using propionaldehyde as substrate at 100 uM preincubated for 2 mins with NAD+ followed by substrate addition by UV-Vis spectrophotometric analysis
[13] = target: T3, Retinal dehydrogenase 2 (Homo sapiens); test: Activation of recombinant human ALDH1A2 using propionaldehyde as substrate at 20 uM preincubated for 2 mins with NAD+ followed by substrate addition by UV-Vis spectrophotometric analysis
[14] = target: T7, Aldehyde dehydrogenase, mitochondrial (Homo sapiens, UniProt P05091); test: Inhibition of recombinant human ALDH2 using propionaldehyde as substrate preincubated for 2 mins with NAD+ followed by substrate addition by UV-Vis spectrophotometric analysis
T7 sequence (P05091 whole entry): T6 sequence (whole entry)

[15] = target: T6, Aldehyde dehydrogenase, mitochondrial (Homo sapiens); test: Activation of recombinant human ALDH2 using propionaldehyde as substrate at 20 uM preincubated for 2 mins with NAD+ followed by substrate addition by UV-Vis spectrophotometric analysis
[16] = target: T8, Retinaldehyde dehydrogenase 3 (Homo sapiens, UniProt P47895); test: Inhibition of recombinant human ALDH1A3 using propionaldehyde as substrate preincubated for 2 mins with NAD+ followed by substrate addition by UV-Vis spectrophotometric analysis
T8 sequence (P47895 whole entry): T2 sequence (whole entry)

| inhibition [2] | inhibition [5] | Activity [8] [%] | Activity [9] [%] | Activity [10] | SMILES | also measured |
| --- | --- | --- | --- | --- | --- | --- |
| – | – | < 10 | < 10 | Active | Cc1ccc(Cn2c(CN3CCN(c4ccccc4)CC3)nc3c2c(=O)n(C)c(=O)n3C)cc1 | Activity [11]: Active |
| inactive | inactive | < 10 | < 10 | – | CCN1CCN(Cc2nc3c(c(=O)n(C)c(=O)n3C)n2CCC(C)C)CC1 | – |
| – | inactive | < 10 | < 10 | – | CC(C)CCn1c(CN2CCC(C)CC2)nc2c1c(=O)n(C)c(=O)n2C | IC50 [14]: > 100 µM; Activity [15]: < 10%; IC50 [16]: > 100 µM |

Second part, the compound before the results:

| SMILES | inhibition [2] | inhibition [5] | Activity [8] [%] | Activity [9] [%] | Activity [10] | also measured |
| --- | --- | --- | --- | --- | --- | --- |
| Cn1c(=O)c2c(ncn2C)n(C)c1=O | inactive | inactive | – | – | – | inhibition [1]: inactive; inhibition [3]: inactive; Activity [4]: inactive; inhibition [6]: inactive; inhibition [7]: inactive |
| CCC1CCCCN1Cc1nc2c(c(=O)n(C)c(=O)n2C)n1Cc1cccc(C)c1 (centres undefined) | – | inactive | < 10 | < 10 | Active | – |
| CC(C)CCn1c(CN2CCC(C(N)=O)CC2)nc2c1c(=O)n(C)c(=O)n2C | – | – | < 10 | < 10 | Active | Activity [11]: Active |
| Cn1c(=O)c2[nH]cnc2n(C)c1=O | inactive | inactive | – | – | – | inhibition [1]: inactive; inhibition [6]: inactive |
| Cc1cccc(Cn2c(CN3CCN(C(=O)c4ccco4)CC3)nc3c2c(=O)n(C)c(=O)n3C)c1 | – | inactive | < 10 | < 10 | Active | Activity [12]: Active; Activity [13]: < 10% |
